Assay [1] addresses T1, human orexin-2 receptor (Homo sapiens (Human), UniProt O43614). Description: radioligand binding assay, orexin-2 receptor. To be noted: membranes prepared from CHO cells expressing the OX2 receptor; read-out: hOX2R BIND hKi. How it is done:
(§1) In a typical experiment the OX1 and OX2 receptor antagonistic activity of the compounds of the present invention was determined in accordance with the following experimental method. For intracellular calcium measurements, Chinese hamster ovary (CHO) cells expressing the rat orexin-1 receptor or the human orexin-2 receptor, are grown in Iscove's modified DMEM containing 2 mM L-glutamine, […], 1% hypoxanthine-thymidine supplement, 100 U/ml penicillin, 100 μg/ml streptomycin and 10% heat-inactivated fetal calf serum (FCS). The cells are seeded at 20,000 cells/well into Becton-Dickinson black 384-well clear bottom sterile plates coated with poly-D-lysine. All reagents were from GIBCO-Invitrogen Corp. The seeded plates are incubated overnight at 37° C. and 5% CO2. Ala-6,12 human orexin-A as the agonist is prepared as a 1 mM stock solution in 1% bovine serum albumin (BSA) and diluted in assay buffer (HBSS containing 20 mM HEPES, 0.1% BSA and 2.5 mM probenecid, pH7.4) for use in the assay at a final concentration of 70 pM. Test compounds are prepared as 10 mM stock solution in DMSO, then diluted in 384-well plates, first in DMSO, then assay buffer. On the day of the assay, cells are washed 3 times with 100 μl assay buffer and then incubated for 60 min (37° C., 5% CO2) in 60 μl assay buffer containing 1 μM Fluo-4AM ester, 0.02% pluronic acid, and 1% BSA. The dye loading solution is then aspirated and cells are washed 3 times with 100 μl assay buffer. 30 μl of that same buffer is left in each well. Within the Fluorescent Imaging Plate Reader (FLIPR, Molecular Devices), test compounds are added to the plate in a volume of 25 μl, incubated for 5 min and finally 25 μl of agonist is added. Fluorescence is measured for each well at 1 second intervals for 5 minutes and the height of each fluorescence peak is compared to the height of the fluorescence peak induced by 70 pM Ala-6,12 orexin-A with buffer in place of antagonist. […] Alternatively, compound potency can be assessed by a radioligand binding assay (described in Bergman et. al. Bioorg. Med. Chem. Lett. 2008, 18, 1425-1430) in which the inhibition constant (Ki) is determined in membranes prepared from CHO cells expressing either the OX1 or OX2 receptor. The intrinsic orexin receptor antagonist activity of a compound which may be used in the present invention may be determined by these assays.

The target in assay [2] is T1, human orexin-2 receptor. Description: FLIPR Ca2+ Flux Assay, orexin-2 receptor. The format is cell-based. As to conditions: CHO cells expressing the human orexin-2 receptor; agonist 70 pM Ala-6,12 human orexin-A; read-out: hOX2R FLIPR IC50. How it is done:
as §1
Background: Calcium assays in cells follow changes in intracellular calcium, usually with a dye or a luminescent sensor.

A further assay has as its target rat orexin-1 receptor (Rattus norvegicus (Rat), UniProt P56718). Kind of assay: FLIPR Ca2+ Flux Assay, orexin-1 receptor. It counts as cell-based. To be noted: CHO cells expressing the rat orexin-1 receptor; agonist 70 pM Ala-6,12 human orexin-A; read-out: hOX1R FLIPR IC50. How it is done:
as §1

T1 sequence (O43614 whole entry): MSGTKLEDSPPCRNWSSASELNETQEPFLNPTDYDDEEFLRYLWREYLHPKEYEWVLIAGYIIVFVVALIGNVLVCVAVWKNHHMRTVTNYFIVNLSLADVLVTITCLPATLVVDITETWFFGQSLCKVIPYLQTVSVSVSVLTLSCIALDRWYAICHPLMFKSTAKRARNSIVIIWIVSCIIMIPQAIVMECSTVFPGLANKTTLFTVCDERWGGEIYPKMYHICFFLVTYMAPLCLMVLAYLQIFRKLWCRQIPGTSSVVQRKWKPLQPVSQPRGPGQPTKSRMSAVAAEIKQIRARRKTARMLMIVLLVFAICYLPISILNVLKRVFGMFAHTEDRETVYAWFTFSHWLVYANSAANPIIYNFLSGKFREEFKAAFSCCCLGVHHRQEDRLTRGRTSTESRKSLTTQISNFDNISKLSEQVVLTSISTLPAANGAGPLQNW
rat orexin-1 receptor, sequence (P56718 whole entry): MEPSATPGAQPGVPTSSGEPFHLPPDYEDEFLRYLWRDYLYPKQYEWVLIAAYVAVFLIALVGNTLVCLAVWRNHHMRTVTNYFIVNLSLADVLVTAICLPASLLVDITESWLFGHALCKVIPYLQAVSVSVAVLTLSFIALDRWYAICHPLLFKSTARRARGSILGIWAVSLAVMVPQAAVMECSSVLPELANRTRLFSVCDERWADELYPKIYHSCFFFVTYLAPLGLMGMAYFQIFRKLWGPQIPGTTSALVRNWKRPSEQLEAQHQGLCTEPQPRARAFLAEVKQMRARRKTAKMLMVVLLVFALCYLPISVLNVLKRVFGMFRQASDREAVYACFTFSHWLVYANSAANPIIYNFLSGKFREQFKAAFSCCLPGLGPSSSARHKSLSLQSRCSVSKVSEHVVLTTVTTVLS

`COc1c(C#N)ccnc1O[C@@H]1CC[C@@H](C)N(C(=O)c2c(F)cccc2-n2nccn2)C1` [Example 100, 2-{[(3R,6R)-1-{[2-fluoro-6-(2H-1,2,3-triazol-2-yl)phenyl]carbonyl}-6-methylpiperidin-3-yl]oxy}-3-methoxypyridine-4-carbonitrile]: the Ki at human orexin-2 receptor [1] was found to be 0.3 nM. For the same compound, the IC50 – broadly, the concentration that inhibits the measured activity by half – on human orexin-2 receptor [2] worked out at 25 nM; at rat orexin-1 receptor, 1440 nM.
On the same counts, the results for `COc1ccc(C(=O)N2C[C@H](Oc3nccc(C#N)c3C)CC[C@H]2C)c(-c2cccnc2)n1` [Example 82, 2-({(3R,6R)-1-[(6-methoxy-2,3′-bypyridin-3-yl)carbonyl]-6-methylpiperidin-3-yl}oxy)-3-methylpyridine-4-carbonitrile] are 2.4 nM, 55.4 nM and 8410 nM.
On the same counts, the results for `Cc1c(C#N)ccnc1O[C@@H]1CC[C@@H](C)N(C(=O)c2ccc(F)cc2C2CC2)C1` [Example 53, 2-({(3R,6R)-1-[(2-cyclopropyl-4-fluorophenyl)carbonyl]-6-methylpiperidin-3-yl}oxy)-3-methylpyridine-4-carbonitrile] are 1.6 nM, 26 nM and 5780 nM.
As to `COc1c(C#N)ccnc1O[C@@H]1CC[C@@H](C)N(C(=O)c2cccc(F)c2-n2nccn2)C1` [Example 97, 2-{[(3R,6R)-1-{[3-fluoro-2-(2H-1,2,3-triazol-2-yl)phenyl]carbonyl}-6-methylpiperidin-3-yl]oxy}-3-methoxypyridine-4-carbonitrile], on human orexin-2 receptor [1], the Ki worked out at 0.3 nM. Moreover, the IC50 worked out at 19 nM on human orexin-2 receptor [2] and 1100 nM on rat orexin-1 receptor.
On to `COc1c(C#N)ccnc1O[C@@H]1CC[C@@H](C)N(C(=O)c2ccc(F)cc2-c2ncccn2)C1` [Example 110, 2-({(3R,6R)-1-[(4-fluoro-2-pyrimidin-2-ylphenyl)carbonyl]-6-methylpiperidin-3-yl}oxy)-3-methoxypyridine-4-carbonitrile], for which the Ki at human orexin-2 receptor [1] was found to be 0.6 nM. The IC50 at human orexin-2 receptor [2] was determined as 39 nM; at rat orexin-1 receptor it was 1240 nM.
For the compound `Cc1c(C#N)ccnc1O[C@@H]1CC[C@@H](C)N(C(=O)c2ccsc2-n2nccn2)C1` [Example 39, 3-methyl-2-{[(3R,6R)-6-methyl-1-{[2-(2H-1,2,3-triazol-2-yl)thiophen-3-yl]carbonyl}piperidin-3-yl]oxy}pyridine-4-carbonitrile], the Ki on human orexin-2 receptor [1] was determined as 0.7 nM. The IC50 on human orexin-2 receptor [2] was found to be 9 nM; at rat orexin-1 receptor, 1510 nM.
With `Cc1noc(-c2ccccc2C(=O)N2C[C@H](Oc3nccc(C#N)c3C)CC[C@H]2C)n1` [Example 58, 3-methyl-2-{[(3R,6R)-6-methyl-1-{[2-(3-methyl-1,2,4-oxadiazol-5-yl)phenyl]carbonyl}piperidin-3-yl]oxy}pyridine-4-carbonitrile], the Ki on human orexin-2 receptor [1] amounted to 0.5 nM. Also, the IC50 at human orexin-2 receptor [2] was found to be 12 nM; on rat orexin-1 receptor it was 733 nM.
On the same counts, the results for `COc1ccc(C(=O)N2C[C@H](Oc3nccc(C#N)c3OC)CC[C@H]2C)c(-n2nccn2)n1` [Example 104, 3-methoxy-2-{[(3R,6R)-1-{[6-methoxy-2-(2H-1,2,3-triazol-2-yl)pyridin-3-yl]carbonyl}-6-methylpiperidin-3-yl]oxy}pyridine-4-carbonitrile] are 2 nM, 29 nM and > 10000 nM.
For the compound `Cc1c(C#N)ccnc1O[C@@H]1CC[C@@H](C)N(C(=O)c2cn(C)nc2-c2ccccc2)C1` [Example 45, 3-methyl-2-({(3R,6R)-6-methyl-1-[(1-methyl-3-phenyl-1H-pyrazol-4-yl)carbonyl]piperidin-3-yl}oxy)pyridine-4-carbonitrile], the Ki at human orexin-2 receptor [1] is 12.7 nM. Also, the IC50 came out at 91 nM on human orexin-2 receptor [2] and 4960 nM on rat orexin-1 receptor.
On the same counts, the results for `Cc1c(C#N)ccnc1O[C@@H]1CC[C@@H](C)N(C(=O)c2ccc(Cl)nc2-n2nccn2)C1` [Example 72, 2-{[(3R,6R)-1-{[6-chloro-2-(2H-1,2,3-triazol-2-yl)pyridin-3-yl]carbonyl}-6-methylpiperidin-3-yl]oxy}-3-methylpyridine-4-carbonitrile] are 3.5 nM, 75 nM and > 10000 nM.
With `Cc1c(C#N)ccnc1O[C@@H]1CC[C@@H](C)N(C(=O)c2ccc(OCF)cc2-n2nccn2)C1` [Example 64, 2-{[(3R,6R)-1-{[4-(fluoromethoxy)-2-(2H-1,2,3-triazol-2-yl)phenyl]carbonyl}-6-methylpiperidin-3-yl]oxy}-3-methylpyridine-4-carbonitrile], the Ki on human orexin-2 receptor [1] was 3.3 nM. For the same compound, the IC50 at human orexin-2 receptor [2] is 35 nM; on rat orexin-1 receptor, 4490 nM.
As to `C[C@@H]1CC[C@@H](Oc2nccc(C#N)c2Cl)CN1C(=O)c1ccccc1-n1nccn1` [Example 91, 3-Chloro-2-{[(3R,6R)-6-methyl-1-{[2-(2H-1,2,3-triazol-2-yl)phenyl]carbonyl}piperidin-3-yl]oxy}pyridine-4-carbonitrile], the Ki on human orexin-2 receptor [1] came to 0.8 nM. Besides, the IC50 on human orexin-2 receptor [2] worked out at 8 nM; at rat orexin-1 receptor, 1600 nM.
On the same counts, the results for `COc1ccc(C(=O)N2C[C@H](Oc3nccc(C#N)c3C)CC[C@H]2C)c(-n2nccn2)n1` [Example 2, 2-{[(3R,6R)-1-{[6-Methoxy-2-(2H-1,2,3-triazol-2-yl)pyridin-3-yl]carbonyl}-6-methylpiperidin-3-yl]oxy}-3-methylpyridine-4-carbonitrile] are 3 nM, 21 nM and 5930 nM.
On the same counts, the results for `COc1ccc(C(=O)N2C[C@H](Oc3nccc(C#N)c3C)CC[C@H]2C)c(-c2ccnn2C)n1` [Example 79, 2-{[(3R,6R)-1-{[6-methoxy-2-(1-methyl-1H-pyrazol-5-yl)pyridin-3-yl]carbonyl}-6-methylpiperidin-3-yl]oxy}-3-methylpyridine-4-carbonitrile] are 9.9 nM, 85.6 nM and 10000 nM.
On to `Cc1c(C#N)ccnc1O[C@@H]1CC[C@@H](C)N(C(=O)c2ccccc2C(F)(F)F)C1` [Example 17, 3-methyl-2-{[(3R,6R)-6-methyl-1-{[2-(trifluoromethyl)phenyl]carbonyl}piperidin-3-yl]oxy}pyridine-4-carbonitrile], for which the Ki at human orexin-2 receptor [1] amounted to 3.1 nM. The values for the IC50 on human orexin-2 receptor [2] and on rat orexin-1 receptor were 21 nM and 4960 nM, respectively.
As for `Cc1c(C#N)ccnc1O[C@@H]1CC[C@@H](C)N(C(=O)c2ccc(F)cc2-n2nccn2)C1` [Example 9, 2-{[(3R,6R)-1-{[4-fluoro-2-(2H-1,2,3-triazol-2-yl)phenyl]carbonyl}-6-methylpiperidin-3-yl]oxy}-3-methylpyridine-4-carbonitrile], on human orexin-2 receptor [1], the Ki stood at 0.5 nM. Besides, the 50% inhibitory concentration (IC50) amounted to 12 nM at human orexin-2 receptor [2] and 1080 nM on rat orexin-1 receptor.
As to `COc1c(C#N)ccnc1O[C@@H]1CC[C@@H](C)N(C(=O)c2ccsc2-n2nccn2)C1` [Example 106, 3-methoxy-2-{[(3R,6R)-6-methyl-1-{[2-(2H-1,2,3-triazol-2-yl)thiophen-3-yl]carbonyl}piperidin-3-yl]oxy}pyridine-4-carbonitrile], the IC50 at human orexin-2 receptor [2] came to 8 nM; at rat orexin-1 receptor, 1960 nM.
Take `COc1ccc(C(=O)N2C[C@H](Oc3nccc(C#N)c3OC)CC[C@H]2C)c(-c2ncccn2)n1` [Example 113, 3-methoxy-2-({(3R,6R)-1-[(6-methoxy-2-pyrimidin-2-ylpyridin-3-yl)carbonyl]-6-methylpiperidin-3-yl}oxy)pyridine-4-carbonitrile]: the IC50 came to 108 nM on human orexin-2 receptor [2] and 10000 nM at rat orexin-1 receptor.
Consider `COc1c(C#N)ccnc1O[C@@H]1CC[C@@H](C)N(C(=O)c2ccsc2-c2ncccn2)C1` [Example 108, 3-methoxy-2-({(3R,6R)-6-methyl-1-[(2-pyrimidin-2-ylthiophen-3-yl)carbonyl]piperidin-3-yl}oxy)pyridine-4-carbonitrile], for which the figures for the IC50 at human orexin-2 receptor [2] and at rat orexin-1 receptor were 14 nM and 713 nM, respectively.
For the compound `COc1ccc(C(=O)N2C[C@H](Oc3nccc(C#N)c3C)CC[C@H]2C)c(-c2cnn(C)c2)n1` [Example 80, 2-{[(3R,6R)-1-{[6-methoxy-2-(1-methyl-1H-pyrazol-4-yl)pyridin-3-yl]carbonyl}-6-methylpiperidin-3-yl]oxy}-3-methylpyridine-4-carbonitrile], the IC50 on human orexin-2 receptor [2] was determined as 171 nM; at rat orexin-1 receptor it was 10000 nM.
